These results are taken from doi:10.1101/669069v1 (biorxiv, 2019).

This assay deals with T1, uMAT (MAT from U. urealiticum) (Ureaplasma urealyticum, UniProt A0ABM9XK24).
T1 sequence (A0ABM9XK24 1-376): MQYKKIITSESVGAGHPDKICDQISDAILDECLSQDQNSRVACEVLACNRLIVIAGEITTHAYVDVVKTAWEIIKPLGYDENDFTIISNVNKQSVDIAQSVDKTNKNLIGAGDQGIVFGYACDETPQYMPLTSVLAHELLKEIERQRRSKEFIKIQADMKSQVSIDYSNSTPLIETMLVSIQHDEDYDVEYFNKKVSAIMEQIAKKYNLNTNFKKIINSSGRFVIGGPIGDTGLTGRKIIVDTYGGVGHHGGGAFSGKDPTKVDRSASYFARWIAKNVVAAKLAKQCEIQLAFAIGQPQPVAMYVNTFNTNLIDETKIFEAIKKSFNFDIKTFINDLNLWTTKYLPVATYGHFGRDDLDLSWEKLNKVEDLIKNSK
Kind of assay: thermal shift, SYPRO-orange. The assay is classed as binding. As to conditions: read-out: dTm (first transition) at 1 mM.

A value given as a limit tells only on which side of the number the result lay.

For the compound `C[S+](CC[C@H](N)C(=O)O)C[C@H]1O[C@@H](n2cnc3c(N)ncnc32)[C@H](O)[C@@H]1O` (some centres unmarked) [SAM, S-adenosylmethionine], the ΔTm at 1000 µM was above 10 °C.

For `Nc1ncnc2c1ncn2[C@@H]1O[C@H](COP(=O)(O)OP(=O)(O)NP(=O)(O)O)[C@@H](O)[C@H]1O` [AMPPNP], the ΔTm at 1000 µM is around 2 °C.
